Assay results as given in US20190209472A1, “FORMULATIONS FOR DERMAL DELIVERY OF POLYMER CONJUGATES OF INDOLOCARBAZOLE COMPOUNDS WITH REDUCED EXPOSURE” (Sienna Biopharmaceuticals, Inc., priority 2017, published 2019).

Key:
[1] = Validation of HPLC methods (SNA-120 assay and related substances, benzyl alcohol); details: benzyl alcohol in ointment sample solutions stored at ambient conditions
Description: An HPLC method was developed for the detection of assay and related substances of SNA-120 drug product and placebo. The following method validation parameters were challenged: specificity; linearity; accuracy; precision (system and repeatability); range; stability of test solutions; limit of detection and quantitation; system suitability.
An HPLC method was developed for the detection of Benzyl Alcohol in SNA-120 drug product and placebo. The following method validation parameters were challenged: specificity; linearity; accuracy; precision (system and repeatability); range; stability of test solutions; system suitability.

[2] = Phase 1b maximal use study: plasma pharmacokinetics of SNA-120; type: in vivo, human; details: any post-baseline timepoint; no detectable levels
Procedure: This is a multicenter, open-label, Phase 1b study designed to evaluate the PK with maximal use of 0.5% w/w SNA-120 ointment (see Table 1), as measured by circulating plasma levels of SNA-120 in men and women aged ≥18 years who have at least moderate (e.g., moderate to severe) pruritus associated with at least moderate (e.g., moderate to severe) psoriasis vulgaris (PV) covering at least 20% body surface area (BSA). SNA-120 was evaluated as a topical, non-steroidal ointment to treat itch (pruritus) associated with psoriasis. SNA-120 was designed to achieve high local drug concentration in the target tissue while minimizing systemic exposure for patients. SNA-120 directly targets the peripheral itch pathway in the psoriatic plaque.
Approximately 30 eligible subjects will receive 0.5% w/w SNA-120 ointment (2 mg/cm^2) proportional to approximately 35 mg active drug at each application for a subject with at least 20% BSA affected, administered twice daily over 4 weeks to the indicated areas in the Treatment Area. […]
Pharmacokinetics—Blood: Serial blood draws for PK analysis will be obtained approximately the same time of day for Study Days 1 and 29. […] On Days 1 and 29, blood draws will be collected after each nominal ECG extraction time point; the actual times of collection will be recorded in the eCRF. […]

With `OCc1ccccc1` [benzyl alcohol] as the compound, how does the “Stability of test solutions: samples stable for up to” value [1] read?
Its value is “ambient conditions. Samples are stable for up to 2 days”.

With `C[C@]12O[C@H](C[C@]1(O)C(=O)O)n1c3ccccc3c3c4c(c5c6ccccc6n2c5c31)CNC4=O` [Lot K252b] as the compound, how does the “Plasma levels of K252b” value [2] read?
Its value is < 0.250 ng/mL.
